# Test results: publication PMC10103840 (Frontiers in Pharmacology, 2023)
# Several values for one entry are separate records, joined by “and”; a condition that tells them apart may be missing. Equal values may be shown once.
# Assays:
# BeWo cells = conditions: ref Spiess et al., 2022b; cited from earlier work
compound,measurement,setting,value
"CC(C)=CCC[C@]1(C)[C@@H](CC=C(C)C)C[C@]2(CC=C(C)C)C(=O)C(CC=C(C)C)=C(O)[C@@]1(C(=O)C(C)C)C2=O [Hyperforin, hyperforin]",Concentration with increased apoptosis / apoptotic effects,BeWo cells,≥ 3000 nM
same,Transplacental transfer (in words),"human placental barrier; 240 min perfusion, 5 μM maternal",little transfer to the fetal circuit
same,Concentration in the maternal compartment,"human placental barrier; after 240 min of perfusion, 5 μM added to maternal circuit",68.6 % of initial concentration
same,Sampling (% found),human placental barrier; amount removed by sampling during 240 min perfusion,21.0 ± 4.5%
same,M perfusate (% found),"human placental barrier; maternal perfusate after 240 min, % of amount in maternal sample at beginning",52.2 ± 21.5% and 52.2%
